Measured values: US20230302150A1, “ANTIBODY-TLR AGONIST CONJUGATES, METHODS AND USES THEREOF” (Ambrx, Inc., priority 2020, published 2023)
Like-named read-outs stand apart in the source and are kept apart here.

Assays:
[1] = molecular target: T1, TLR8 (Homo sapiens, UniProt Q9NR97); experiment: TLR8 reporter assay; assay type: cell-based
T1 sequence (Q9NR97 27-1041): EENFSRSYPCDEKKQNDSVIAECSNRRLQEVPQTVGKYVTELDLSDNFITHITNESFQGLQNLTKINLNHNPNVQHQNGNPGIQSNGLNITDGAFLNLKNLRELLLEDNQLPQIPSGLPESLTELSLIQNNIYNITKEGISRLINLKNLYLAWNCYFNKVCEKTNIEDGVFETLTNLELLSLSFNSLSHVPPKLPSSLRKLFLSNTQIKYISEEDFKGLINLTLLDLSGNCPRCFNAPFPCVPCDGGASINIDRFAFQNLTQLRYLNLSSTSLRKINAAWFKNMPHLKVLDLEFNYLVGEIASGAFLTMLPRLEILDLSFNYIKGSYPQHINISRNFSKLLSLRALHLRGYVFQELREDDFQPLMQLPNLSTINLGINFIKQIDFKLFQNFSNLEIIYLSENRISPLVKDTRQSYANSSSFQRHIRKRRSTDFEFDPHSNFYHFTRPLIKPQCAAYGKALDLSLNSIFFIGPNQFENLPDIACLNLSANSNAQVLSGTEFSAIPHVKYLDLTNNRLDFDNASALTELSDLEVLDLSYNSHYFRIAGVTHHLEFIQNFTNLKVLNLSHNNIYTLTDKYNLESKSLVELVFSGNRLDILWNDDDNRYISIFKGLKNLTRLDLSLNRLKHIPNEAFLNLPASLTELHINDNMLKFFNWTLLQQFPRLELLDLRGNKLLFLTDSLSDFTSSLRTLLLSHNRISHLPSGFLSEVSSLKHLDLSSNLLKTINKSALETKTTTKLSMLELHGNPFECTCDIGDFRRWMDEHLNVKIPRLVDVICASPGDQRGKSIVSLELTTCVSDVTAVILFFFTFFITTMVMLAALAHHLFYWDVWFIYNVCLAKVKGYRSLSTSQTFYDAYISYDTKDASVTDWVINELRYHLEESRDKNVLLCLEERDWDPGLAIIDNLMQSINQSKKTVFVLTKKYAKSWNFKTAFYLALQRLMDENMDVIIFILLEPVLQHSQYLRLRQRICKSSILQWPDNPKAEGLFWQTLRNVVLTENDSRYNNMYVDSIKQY

[2] = test system: SKOV3 HER2 high expressing tumor cell line / RAW-Blue cells; experiment: RAW-Blue co-culture assay with SKOV3 tumor cells; assay type: cell-based, human; details: conjugated to anti-HER2 antibody; data not shown
Description: (§1) RAW-Blue™ cells (Invivogen, San Diego, CA) were co-cultured with human tumor cells with different levels of HER2 expression level at 1:1 E:T ratio with total number of 1 million cells per well in the 96 wells plate. Different concentration of small molecule TLR7 agonist and conjugated ISACs, (Immune Stimulating Antibody Conjugates), were added to the co-culture cell medium. After 24 h incubation, the levels of NF-kB-induced SEAP from the RAW-Blue™ cells were determined by Quanti-Blue detection reagents (Invivogen, San Diego, CA) with readings at OD 655 nm. The dose-response curves were generated using Prism Software.

[3] = molecular target: T2, hTLR7 (Homo sapiens, UniProt Q9NYK1); experiment: HEK-Blue hTLR7 reporter assay (NF-kB-induced SEAP, Quanti-Blue); assay type: cell-based
T2 construct: expressed in transfected cells; host or cells: HEK-Blue hTLR7 reporter cell line
T2 sequence (Q9NYK1 27-1049): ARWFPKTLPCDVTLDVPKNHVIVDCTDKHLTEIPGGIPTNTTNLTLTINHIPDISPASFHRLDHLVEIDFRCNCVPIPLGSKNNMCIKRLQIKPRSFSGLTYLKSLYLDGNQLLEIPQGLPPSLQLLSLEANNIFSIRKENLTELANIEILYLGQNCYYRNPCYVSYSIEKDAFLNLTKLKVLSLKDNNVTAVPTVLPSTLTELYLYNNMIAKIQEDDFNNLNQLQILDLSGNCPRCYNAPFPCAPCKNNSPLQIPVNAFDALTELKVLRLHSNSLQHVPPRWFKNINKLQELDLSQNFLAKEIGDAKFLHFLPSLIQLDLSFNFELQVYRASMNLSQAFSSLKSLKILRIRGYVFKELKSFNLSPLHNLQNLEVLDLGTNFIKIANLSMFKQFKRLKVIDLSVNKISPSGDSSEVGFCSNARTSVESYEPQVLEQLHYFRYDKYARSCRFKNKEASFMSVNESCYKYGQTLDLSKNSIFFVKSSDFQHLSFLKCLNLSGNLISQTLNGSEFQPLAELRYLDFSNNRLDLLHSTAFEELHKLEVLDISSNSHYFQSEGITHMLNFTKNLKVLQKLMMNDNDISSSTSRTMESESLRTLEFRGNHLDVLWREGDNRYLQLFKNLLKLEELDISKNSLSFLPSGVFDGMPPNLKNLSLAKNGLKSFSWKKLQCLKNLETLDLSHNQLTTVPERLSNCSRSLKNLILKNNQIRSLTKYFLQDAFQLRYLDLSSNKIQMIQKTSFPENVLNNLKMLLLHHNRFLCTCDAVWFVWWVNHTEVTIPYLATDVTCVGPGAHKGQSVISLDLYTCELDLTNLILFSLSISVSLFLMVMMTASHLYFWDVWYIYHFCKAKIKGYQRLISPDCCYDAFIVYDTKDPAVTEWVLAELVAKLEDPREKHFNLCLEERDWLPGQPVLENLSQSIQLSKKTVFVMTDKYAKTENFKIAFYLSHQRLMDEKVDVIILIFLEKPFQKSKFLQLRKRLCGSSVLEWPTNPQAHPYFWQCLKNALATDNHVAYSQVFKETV
Description: HEK-Blue™ hTLR7 cells were incubated in HEK-Blue™ Detection medium and stimulated with increasing concentrations of TLR7 or TLR8 or TLR7/8 agonists. […] The EC50 was determined from dose-response curve using Prism Software.

[4] = test system: SKBR3 HER2 high expressing tumor cell line / RAW-Blue cells; experiment: RAW-Blue co-culture assay with SKBR3 tumor cells (HER2 ISACs); assay type: cell-based, human
Description: as §1

EC50 ([3]; Table 12, TLR7 agonists attached to a linker, read-out: TLR Agonist Payload + Linkers EC50) | EC50 ([3]; Table 15, drug linker, read-out: TLR Agonist + Linker (DL) - EC50) | EC50 ([3]; Table 15, pAF containing final metabolite, read-out: TLR Agonist + Linker + nnAA (DL-pAF) - EC50) | EC50 ([3]; Table 19, TLR7, drug-linkers with PEG shielding, read-out: EC50) | Structure (SMILES) | EC50 [1] | tumor dependent ISAC activity [2] | tumor dependent ISAC activity [4] | EC50 ([3]; Table 11, TLR7 activities, read-out: EC50) | EC50 ([3]; text to Table 11, TLR7, read-out: EC50)
– | – | – | – | CCCN(CCC)C(=O)C1=Cc2ccc(-c3ccc(C(=O)N4CCCC4)cc3)cc2N=C(N)C1 [Motolimod, reference compound] | 1430 nM | – | – | – | –
864 nM | 864 nM | 287 nM | 320 nM | CCCCOc1nc(N)c2[nH]c(=O)n(Cc3ccc(CNC(=O)CCOCCON)cc3)c2n1 [AXC-863] | – | potent dose dependent activities only in the presence of HER2 high expressing tumor cell lines | potent dose dependent activities only in the presence of HER2 high expressing tumor cell lines | – | –
– | – | – | – | CCCCOc1nc(N)c2[nH]c(=O)n(Cc3ccc(CN4CCC(CCNC(=O)c5cc(F)c(N)c(F)c5)CC4)cc3)c2n1 [AXC-887, 4-amino-N-(2-(1-(4-((6-amino-2-butoxy-8-oxo-7H-purin-9(8H)-yl)methyl)benzyl)piperidin-4-yl)ethyl)-3,5-difluorobenzamide] | 3730 nM | – | – | 4.6 nM | < 10 nM
